Species: Rattus norvegicus
Assay: Open TG-GATES - Regimen: Single
Type: toxicity, organism-based, Sprague-Dawley
Set-up: regimen Single, gender Male, age 6 weeks
Conditions: in vivo, po, 300 mg/kg, route gavage, dose level High; for APTT / Bas / Eos / Fbg / Hb / Ht / Lym / MCH / MCHC / MCV / Mono / Neu / PT / Plat / RBC / Ret / WBC: tissue Blood; for KIDNEY_L / KIDNEY_R / KIDNEY_TOTAL: tissue Kidney; for LIVER: tissue Liver; for A/G / ALP / ALT / AST / BUN / CRE / Ca / Cl / DBIL / GLC / IP / K / LDH / Na / PL / RALB / TBIL / TC / TG / TP / gamma-GTP: tissue Plasma

CCc1oc2ccccc2c1C(=O)c1cc(I)c(O)c(I)c1 [BENZIODARONE]
TERMINAL_BW (3 h): 211.6 g | APTT (3 h): 17 s | Bas (3 h): 0% | Eos (3 h): 0.2% | Fbg (3 h): 206 mg/dL | Hb (3 h): 13 g/dL | Ht (3 h): 39% | Lym (3 h): 75.8% | MCH (3 h): 21.6 pg | MCHC (3 h): 33.3% | MCV (3 h): 65 fL | Mono (3 h): 7.4% | Neu (3 h): 16.4% | PT (3 h): 11.9 s | Plat (3 h): 107 x10_4/uL | RBC (3 h): 600.4 x10_4/ul | Ret (3 h): 11.4% | WBC (3 h): 93.8 x10_2/uL | KIDNEY_L (3 h): 0.9 g | KIDNEY_R (3 h): 1 g | KIDNEY_TOTAL (3 h): 1.9 g | LIVER (3 h): 10 g | A/G (3 h): 2 | ALP (3 h): 893 IU/L | ALT (3 h): 37.8 IU/L | AST (3 h): 64.6 IU/L | BUN (3 h): 16.4 mg/dL | CRE (3 h): 0.6 mg/dL | Ca (3 h): 10.5 mg/dL | Cl (3 h): 102 meq/L | DBIL (3 h): 0.056 mg/dL | GLC (3 h): 230.8 mg/dL | IP (3 h): 9.7 mg/dL | K (3 h): 4.7 meq/L | LDH (3 h): 102.8 IU/L | Na (3 h): 139 meq/L | PL (3 h): 133.6 mg/dL | RALB (3 h): 3.5 g/dL | TBIL (3 h): 0.5 mg/dL | TC (3 h): 71.4 mg/dL | TG (3 h): 71.4 mg/dL | TP (3 h): 5.3 g/dL | gamma-GTP (3 h): 1.2 IU/L | TERMINAL_BW (6 h): 214.2 g | APTT (6 h): 18.2 s | Bas (6 h): 0% | Eos (6 h): 1% | Fbg (6 h): 205.8 mg/dL | Hb (6 h): 13 g/dL | Ht (6 h): 38.8% | Lym (6 h): 79% | MCH (6 h): 21.9 pg | MCHC (6 h): 33.6% | MCV (6 h): 65.4 fL | Mono (6 h): 3.6% | Neu (6 h): 16.8% | PT (6 h): 12.2 s | Plat (6 h): 113.1 x10_4/uL | RBC (6 h): 593.6 x10_4/ul | Ret (6 h): 11.2% | WBC (6 h): 70.8 x10_2/uL | KIDNEY_L (6 h): 0.9 g | KIDNEY_R (6 h): 1 g | KIDNEY_TOTAL (6 h): 1.9 g | LIVER (6 h): 9.4 g | A/G (6 h): 2.1 | ALP (6 h): 980.4 IU/L | ALT (6 h): 39.6 IU/L | AST (6 h): 64.4 IU/L | BUN (6 h): 14.6 mg/dL | CRE (6 h): 0.6 mg/dL | Ca (6 h): 10.4 mg/dL | Cl (6 h): 102.8 meq/L | DBIL (6 h): 0.052 mg/dL | GLC (6 h): 235.6 mg/dL | IP (6 h): 10.3 mg/dL | K (6 h): 4.5 meq/L | LDH (6 h): 89 IU/L | Na (6 h): 140.2 meq/L | PL (6 h): 129.4 mg/dL | RALB (6 h): 3.6 g/dL | TBIL (6 h): 0.4 mg/dL | TC (6 h): 73.8 mg/dL | TG (6 h): 36 mg/dL | TP (6 h): 5.2 g/dL | gamma-GTP (6 h): 1.4 IU/L | TERMINAL_BW (9 h): 215.8 g | APTT (9 h): 18.7 s | Bas (9 h): 0% | Eos (9 h): 0.6% | Fbg (9 h): 208.2 mg/dL | Hb (9 h): 13.5 g/dL | Ht (9 h): 40.2% | Lym (9 h): 80% | MCH (9 h): 22.1 pg | MCHC (9 h): 33.6% | MCV (9 h): 65.7 fL | Mono (9 h): 6.8% | Neu (9 h): 12.8% | PT (9 h): 12.2 s | Plat (9 h): 114.6 x10_4/uL | RBC (9 h): 612 x10_4/ul | Ret (9 h): 9.3% | WBC (9 h): 88.9 x10_2/uL | KIDNEY_L (9 h): 1 g | KIDNEY_R (9 h): 1 g | KIDNEY_TOTAL (9 h): 2 g | LIVER (9 h): 9 g | A/G (9 h): 2.1 | ALP (9 h): 976.4 IU/L | ALT (9 h): 38.2 IU/L | AST (9 h): 63 IU/L | BUN (9 h): 17 mg/dL | CRE (9 h): 0.6 mg/dL | Ca (9 h): 10.5 mg/dL | Cl (9 h): 103.8 meq/L | DBIL (9 h): 0.098 mg/dL | GLC (9 h): 214 mg/dL | IP (9 h): 10.8 mg/dL | K (9 h): 4.7 meq/L | LDH (9 h): 107.6 IU/L | Na (9 h): 141.8 meq/L | PL (9 h): 139.2 mg/dL | RALB (9 h): 3.7 g/dL | TBIL (9 h): 0.2 mg/dL | TC (9 h): 75.4 mg/dL | TG (9 h): 77 mg/dL | TP (9 h): 5.4 g/dL | gamma-GTP (9 h): 1.4 IU/L | TERMINAL_BW (24 h): 220.7 g | APTT (24 h): 16.9 s | Bas (24 h): 0% | Eos (24 h): 0.6% | Fbg (24 h): 200.8 mg/dL | Hb (24 h): 13.4 g/dL | Ht (24 h): 39.8% | Lym (24 h): 81% | MCH (24 h): 21.7 pg | MCHC (24 h): 33.8% | MCV (24 h): 64.4 fL | Mono (24 h): 6% | Neu (24 h): 12.6% | PT (24 h): 12.1 s | Plat (24 h): 120.3 x10_4/uL | RBC (24 h): 618.2 x10_4/ul | Ret (24 h): 9.6% | WBC (24 h): 106.3 x10_2/uL | KIDNEY_L (24 h): 1 g | KIDNEY_R (24 h): 1 g | KIDNEY_TOTAL (24 h): 2 g | LIVER (24 h): 11.9 g | A/G (24 h): 2.2 | ALP (24 h): 1044.4 IU/L | ALT (24 h): 36.2 IU/L | AST (24 h): 67.2 IU/L | BUN (24 h): 17.8 mg/dL | CRE (24 h): 0.6 mg/dL | Ca (24 h): 10.7 mg/dL | Cl (24 h): 104 meq/L | DBIL (24 h): 0.008 mg/dL | GLC (24 h): 184.8 mg/dL | IP (24 h): 8.3 mg/dL | K (24 h): 4.6 meq/L | LDH (24 h): 89.2 IU/L | Na (24 h): 141.2 meq/L | PL (24 h): 120.2 mg/dL | RALB (24 h): 3.9 g/dL | TBIL (24 h): 0.3 mg/dL | TC (24 h): 66.6 mg/dL | TG (24 h): 72 mg/dL | TP (24 h): 5.7 g/dL | gamma-GTP (24 h): 1.4 IU/L
